Test: xn = mol fraction of the nth substance listed
Settings: Liquid, Vibrating tube method

CCCCCCCCCCC [undecane] + CCCCCCC
Settings	mass density [kg/m3]
323.12 K, 7000 kPa, x2 = 0.7482	685.4
323.12 K, 8000 kPa, x2 = 0.7482	686.4
323.12 K, 8001 kPa, x2 = 0.05	722.8
323.12 K, 9000 kPa, x2 = 0.05	723.6
323.12 K, 9000 kPa, x2 = 0.7482	687.3
323.12 K, 10000 kPa, x2 = 0.05	724.5
323.12 K, 10000 kPa, x2 = 0.7482	688.3
323.12 K, 11000 kPa, x2 = 0.05	725.3
323.12 K, 11000 kPa, x2 = 0.7482	689.2
323.12 K, 12000 kPa, x2 = 0.05	726.1
323.12 K, 12000 kPa, x2 = 0.7482	690.1
323.12 K, 13000 kPa, x2 = 0.05	726.8
323.12 K, 13000 kPa, x2 = 0.7482	691.1
323.12 K, 14000 kPa, x2 = 0.05	727.6
323.12 K, 14000 kPa, x2 = 0.7482	691.9
323.12 K, 15000 kPa, x2 = 0.05	728.4
323.12 K, 15000 kPa, x2 = 0.7482	692.8
323.12 K, 16000 kPa, x2 = 0.05	729.1
323.12 K, 16000 kPa, x2 = 0.7482	693.7
323.12 K, 17000 kPa, x2 = 0.05	729.9
323.12 K, 17000 kPa, x2 = 0.7482	694.5
323.12 K, 18000 kPa, x2 = 0.05	730.6
323.12 K, 18000 kPa, x2 = 0.7482	695.4
323.12 K, 19000 kPa, x2 = 0.05	731.3
323.12 K, 19000 kPa, x2 = 0.7482	696.2
323.12 K, 20000 kPa, x2 = 0.05	732
323.12 K, 20000 kPa, x2 = 0.7482	697
323.12 K, 21000 kPa, x2 = 0.05	732.7
323.12 K, 21000 kPa, x2 = 0.7482	697.8
323.12 K, 22000 kPa, x2 = 0.7482	698.6
323.12 K, 22001 kPa, x2 = 0.05	733.4
323.12 K, 23000 kPa, x2 = 0.05	734.1
323.12 K, 23000 kPa, x2 = 0.7482	699.4
323.12 K, 24000 kPa, x2 = 0.05	734.8
323.12 K, 24000 kPa, x2 = 0.7482	700.1
323.12 K, 25000 kPa, x2 = 0.05	735.4
323.12 K, 25000 kPa, x2 = 0.7482	700.9
323.15 K, 1000 kPa, x2 = 0.2346	708.9
323.15 K, 2000 kPa, x2 = 0.2346	709.9
323.15 K, 3000 kPa, x2 = 0.2346	710.8
323.15 K, 4001 kPa, x2 = 0.2346	711.7
323.15 K, 5001 kPa, x2 = 0.2346	712.6
323.15 K, 6001 kPa, x2 = 0.2346	713.5
323.15 K, 7001 kPa, x2 = 0.2346	714.4
323.15 K, 8000 kPa, x2 = 0.2346	715.2
323.15 K, 9000 kPa, x2 = 0.2346	716.1
323.15 K, 10000 kPa, x2 = 0.2346	716.9
323.15 K, 11000 kPa, x2 = 0.2346	717.7
323.15 K, 12000 kPa, x2 = 0.2346	718.5
323.15 K, 13000 kPa, x2 = 0.2346	719.4
323.15 K, 14000 kPa, x2 = 0.2346	720.1
323.15 K, 15000 kPa, x2 = 0.2346	720.9
323.15 K, 16001 kPa, x2 = 0.2346	721.7
323.15 K, 17000 kPa, x2 = 0.2346	722.5
323.15 K, 18000 kPa, x2 = 0.2346	723.2
323.15 K, 19000 kPa, x2 = 0.2346	724
323.15 K, 20000 kPa, x2 = 0.2346	724.7
323.15 K, 21033 kPa, x2 = 0.2346	725.4
323.15 K, 22034 kPa, x2 = 0.2346	726.1
323.15 K, 23036 kPa, x2 = 0.2346	726.9
323.15 K, 24037 kPa, x2 = 0.2346	727.5
323.15 K, 25039 kPa, x2 = 0.2346	728.2
333.01 K, 1001 kPa, x2 = 0.9511	654.4
333.01 K, 2000 kPa, x2 = 0.9511	655.7
333.01 K, 3000 kPa, x2 = 0.9511	656.9
333.01 K, 4000 kPa, x2 = 0.9511	658.2
333.01 K, 5000 kPa, x2 = 0.9511	659.4
333.01 K, 6000 kPa, x2 = 0.9511	660.5
333.01 K, 7000 kPa, x2 = 0.9511	661.7
333.01 K, 8000 kPa, x2 = 0.9511	662.8
333.01 K, 9000 kPa, x2 = 0.9511	663.9
333.01 K, 10000 kPa, x2 = 0.9511	665
333.01 K, 11000 kPa, x2 = 0.9511	666.1
333.01 K, 12000 kPa, x2 = 0.9511	667.1
333.01 K, 13000 kPa, x2 = 0.9511	668.2
333.01 K, 14001 kPa, x2 = 0.9511	669.2
333.01 K, 15001 kPa, x2 = 0.9511	670.2
333.01 K, 16000 kPa, x2 = 0.9511	671.2
333.01 K, 17001 kPa, x2 = 0.9511	672.1
333.01 K, 18001 kPa, x2 = 0.9511	673.1
333.01 K, 19000 kPa, x2 = 0.9511	674
333.01 K, 20000 kPa, x2 = 0.9511	674.9
333.01 K, 21001 kPa, x2 = 0.9511	675.8
333.01 K, 22000 kPa, x2 = 0.9511	676.7
333.01 K, 23001 kPa, x2 = 0.9511	677.6
333.01 K, 24000 kPa, x2 = 0.9511	678.5
333.01 K, 25000 kPa, x2 = 0.9511	679.3
333.04 K, 2001 kPa, x2 = 0.5063	688
333.04 K, 3000 kPa, x2 = 0.5063	689
333.04 K, 4000 kPa, x2 = 0.5063	690.1
333.04 K, 5000 kPa, x2 = 0.5063	691.1
333.04 K, 6000 kPa, x2 = 0.5063	692.1
333.04 K, 7000 kPa, x2 = 0.5063	693.1
333.04 K, 8001 kPa, x2 = 0.5063	694.1
333.04 K, 9000 kPa, x2 = 0.5063	695
333.04 K, 10000 kPa, x2 = 0.5063	696
333.04 K, 11000 kPa, x2 = 0.5063	696.9
333.04 K, 12000 kPa, x2 = 0.5063	697.8
333.04 K, 13000 kPa, x2 = 0.5063	698.7
333.04 K, 14000 kPa, x2 = 0.5063	699.6
333.04 K, 15000 kPa, x2 = 0.5063	700.5
333.04 K, 16000 kPa, x2 = 0.5063	701.4
333.04 K, 17001 kPa, x2 = 0.5063	702.2
333.04 K, 18000 kPa, x2 = 0.5063	703.1
333.04 K, 19000 kPa, x2 = 0.5063	703.9
333.04 K, 20000 kPa, x2 = 0.5063	704.7
333.04 K, 21001 kPa, x2 = 0.5063	705.6
333.04 K, 22050 kPa, x2 = 0.5063	706.3
333.04 K, 23000 kPa, x2 = 0.5063	707.1
333.04 K, 24000 kPa, x2 = 0.5063	707.9
333.04 K, 25000 kPa, x2 = 0.5063	708.7
333.05 K, 1000 kPa, x2 = 0.7482	670.8
333.05 K, 2000 kPa, x2 = 0.7482	672
333.05 K, 3000 kPa, x2 = 0.7482	673.1
333.05 K, 4000 kPa, x2 = 0.7482	674.3
333.05 K, 5000 kPa, x2 = 0.7482	675.4
333.05 K, 6000 kPa, x2 = 0.7482	676.4
333.05 K, 7000 kPa, x2 = 0.7482	677.5
333.05 K, 8000 kPa, x2 = 0.7482	678.6
333.05 K, 9000 kPa, x2 = 0.7482	679.6
333.05 K, 10000 kPa, x2 = 0.7482	680.6
333.05 K, 11000 kPa, x2 = 0.7482	681.6
333.05 K, 12000 kPa, x2 = 0.7482	682.6
333.05 K, 13000 kPa, x2 = 0.7482	683.6
333.05 K, 14000 kPa, x2 = 0.7482	684.5
333.05 K, 15000 kPa, x2 = 0.7482	685.4
333.05 K, 16000 kPa, x2 = 0.7482	686.4
333.05 K, 17000 kPa, x2 = 0.7482	687.3
333.05 K, 18000 kPa, x2 = 0.7482	688.2
333.05 K, 19000 kPa, x2 = 0.7482	689
333.05 K, 20000 kPa, x2 = 0.7482	689.9
333.05 K, 21000 kPa, x2 = 0.7482	690.8
333.05 K, 22000 kPa, x2 = 0.7482	691.6
333.05 K, 23000 kPa, x2 = 0.7482	692.4
333.05 K, 24000 kPa, x2 = 0.7482	693.2
333.05 K, 25000 kPa, x2 = 0.7482	694
333.09 K, 1001 kPa, x2 = 0.05	709.1
333.09 K, 1004 kPa, x2 = 0.2346	701.3
333.09 K, 2001 kPa, x2 = 0.05	710.1
333.09 K, 2004 kPa, x2 = 0.2346	702.3
333.09 K, 3000 kPa, x2 = 0.05	711
333.09 K, 3003 kPa, x2 = 0.2346	703.3
333.09 K, 4000 kPa, x2 = 0.05	712
333.09 K, 4003 kPa, x2 = 0.2346	704.2
333.09 K, 5000 kPa, x2 = 0.05	712.9
333.09 K, 5003 kPa, x2 = 0.2346	705.2
333.09 K, 6000 kPa, x2 = 0.05	713.8
333.09 K, 6003 kPa, x2 = 0.2346	706.1
333.09 K, 7000 kPa, x2 = 0.05	714.7
333.09 K, 7003 kPa, x2 = 0.2346	707
333.09 K, 8001 kPa, x2 = 0.05	715.6
333.09 K, 8002 kPa, x2 = 0.2346	708
333.09 K, 9000 kPa, x2 = 0.05	716.5
333.09 K, 9002 kPa, x2 = 0.2346	708.9
333.09 K, 10000 kPa, x2 = 0.05	717.3
333.09 K, 10002 kPa, x2 = 0.2346	709.7
333.09 K, 11000 kPa, x2 = 0.05	718.2
333.09 K, 11002 kPa, x2 = 0.2346	710.6
333.09 K, 12000 kPa, x2 = 0.05	719
333.09 K, 12002 kPa, x2 = 0.2346	711.5
333.09 K, 13000 kPa, x2 = 0.05	719.9
333.09 K, 13001 kPa, x2 = 0.2346	712.3
333.09 K, 14000 kPa, x2 = 0.05	720.7
333.09 K, 14001 kPa, x2 = 0.2346	713.2
333.09 K, 15000 kPa, x2 = 0.05	721.5
333.09 K, 15002 kPa, x2 = 0.2346	714
333.09 K, 16000 kPa, x2 = 0.05	722.3
333.09 K, 16002 kPa, x2 = 0.2346	714.8
333.09 K, 17000 kPa, x2 = 0.05	723.1
333.09 K, 17002 kPa, x2 = 0.2346	715.6
333.09 K, 18000 kPa, x2 = 0.05	723.8
333.09 K, 18002 kPa, x2 = 0.2346	716.4
333.09 K, 19000 kPa, x2 = 0.05	724.6
333.09 K, 19001 kPa, x2 = 0.2346	717.2
333.09 K, 20000 kPa, x2 = 0.05	725.4
333.09 K, 20002 kPa, x2 = 0.2346	718
333.09 K, 21000 kPa, x2 = 0.05	726.1
333.09 K, 21035 kPa, x2 = 0.2346	718.8
333.09 K, 22001 kPa, x2 = 0.05	726.8
333.09 K, 22036 kPa, x2 = 0.2346	719.5
333.09 K, 23000 kPa, x2 = 0.05	727.6
333.09 K, 23038 kPa, x2 = 0.2346	720.3
333.09 K, 24000 kPa, x2 = 0.05	728.3
333.09 K, 24039 kPa, x2 = 0.2346	721
333.09 K, 25000 kPa, x2 = 0.05	729
333.09 K, 25041 kPa, x2 = 0.2346	721.8
